Data published in publication PMC13197777, “Distinct 2-phenylimidazo[1,2-a]pyridine derivatives that inhibit breast cancer cell proliferation identified as AHR ligands” (iScience, 2026).

Assay: Parallel artificial membrane permeability assay (PAMPA)
Settings: for Conc. acceptor well / Conc. donor well: PAMPA after incubation
Protocol: The plates were stored at – 20 °C until ready for use. Prior to use, the plate was prewarmed at room temperature for 30 min. Donor- and acceptor solutions were prepared as 12 mM phosphate buffered saline with a pH of 6.5 (donor) respectively 7.4 (acceptor). […] Then, 300 μL of each donor solution were filled into the donor (bottom) wells of the PAMPA plate. 200 μL of the acceptor medium were loaded into each well of the pre-coated receiver plate (top). […] The compound concentrations in the donor- and acceptor wells were then determined using a Jasco 2 HPLC system equipped with a ReproSil-Pur 120 ODS-3 column (5 μm, 50 × 2 mm) and UV detection. […] The injection volume was 40 μL and the flow rate 1 mL/min. […] For X15695, two calibration curves were prepared in the presence (donor well) and absence (acceptor well) of 10% ethanol. (Figure S6). The experiments were performed in triplicates.
Where cA(t) is the compound concentration in the acceptor well in μmol⋅l^−1, cD(t) is the compound concentration in the donor well in […], VA and VD is the volume of the acceptor respectively donor solution per well in mL, A is the membrane area in cm^2 and t the incubation time in seconds (Table S3).

Fc1ccc(-c2cn3cc(C(F)(F)F)cc(Cl)c3n2)cc1 [X15695]
Papp at 5 h, 200 µM (PAMPA): 8.68 ×10⁻⁶ cm/s | Conc. acceptor well (replica 1): 55.19 µM | Conc. donor well (replica 1): 214.69 µM | Conc. acceptor well (replica 2): 55.84 µM | Conc. donor well (replica 2): 190.41 µM | Conc. acceptor well (replica 3): 25.23 µM | Conc. donor well (replica 3): 225.99 µM
